Changes are numbered by the printed parent chain.
Columns and labels:
Experiment in all cases: MST affinity of MKP3 mutant
Assay type in all cases: binding
Conditions in all cases: full-length mutant
[1] = molecular target: T1, MKP3 E81G (Homo sapiens, UniProt Q16828, E81G)
T1 construct: MKP3(1–381) (MKP3^FL); made in house; host or cells: Escherichia coli BL21(DE3)
T1 sequence (Q16828 1-381 E81G): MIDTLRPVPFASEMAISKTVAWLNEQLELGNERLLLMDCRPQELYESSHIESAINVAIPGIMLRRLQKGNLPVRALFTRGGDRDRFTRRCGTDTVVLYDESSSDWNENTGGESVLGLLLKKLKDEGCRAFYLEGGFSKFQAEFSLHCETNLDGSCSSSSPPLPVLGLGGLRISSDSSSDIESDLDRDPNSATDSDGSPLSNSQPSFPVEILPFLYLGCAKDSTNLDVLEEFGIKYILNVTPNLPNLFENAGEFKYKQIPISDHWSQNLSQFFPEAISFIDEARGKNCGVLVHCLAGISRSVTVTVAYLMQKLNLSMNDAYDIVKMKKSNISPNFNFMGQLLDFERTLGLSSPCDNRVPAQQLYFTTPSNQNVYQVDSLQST
Description: (§1) MST measurements were performed using fluorescently labeled proteins and the inhibitor BCI (CAS: 1245792-51-1; TargetMol) on a Monolith instrument (NanoTemper Technologies). The RED–Tris–NTA second-generation dye was dissolved in MST buffer (20 mM Hepes, pH 7.4, 200 mM NaCl, and 0.05% Tween-20) to prepare a 5 μM stock solution. Fluorescent labeling of MKP proteins followed the standard protocol of the MO-L018 RED–Tris–NTA protein labeling kit, leveraging the His-tag–dye interaction.
(§2) The BCI compound was prepared as a 600 to 750 μM stock solution in MST buffer with 10% DMSO to enhance solubility, followed by a 16-point serial dilution. The diluted BCI solutions were thoroughly mixed with labeled MKP proteins (50 nM) at a 1:1 volume ratio, yielding a final volume of 10 μl. The reaction mixtures were incubated in the dark for 10 min at room temperature before being loaded into standard glass capillaries. Measurements were carried out on the Monolith instrument (100% LED, 40% IR laser power) with a 20 s laser on time. The normalized fluorescence values from triplicate measurements were averaged at each concentration and fitted to a 1:1 binding model using the KD model in MO.Affinity software (v3.0.5, NanoTemper Technologies) to determine the binding affinities between MKP proteins and the BCI inhibitor. The final reported Kd value represents the mean ± SD of Kd values obtained from three independent experiments, each fitted separately.
(§3) Figure S3. Affinity measurements of MKP3 mutants with BCI by MST. The binding affinities of full-length MKP3 mutants (E81G, R83G, R85G, R87G, and R89A) to BCI were determined by MST and are presented as mean ± SD (n = 3). Wild-type MKP3 (MKP3^WT) was included as a reference.

[2] = molecular target: T2, MKP3 R83G (Homo sapiens, UniProt Q16828, R83G)
T2 construct: MKP3(1–381) (MKP3^FL); made in house; host or cells: Escherichia coli BL21(DE3)
T2 sequence (Q16828 1-381 R83G): T1 sequence (Q16828 1-381 E81G) with G81E, R83G
Description: as §1, §2, §3

[3] = molecular target: T3, MKP3 R85G (Homo sapiens, UniProt Q16828, R85G)
T3 construct: MKP3(1–381) (MKP3^FL); made in house; host or cells: Escherichia coli BL21(DE3)
T3 sequence (Q16828 1-381 R85G): T1 sequence (Q16828 1-381 E81G) with G81E, R85G
Description: as §1, §2, §3

[4] = molecular target: T4, MKP3 R89A (Homo sapiens, UniProt Q16828, R89A)
T4 construct: MKP3(1–381) (MKP3^FL); made in house; host or cells: Escherichia coli BL21(DE3)
T4 sequence (Q16828 1-381 R89A): T1 sequence (Q16828 1-381 E81G) with G81E, R89A
Description: as §1, §2, §3

[5] = molecular target: T5, MKP3 T87G (Homo sapiens, UniProt Q16828, T87G)
T5 construct: MKP3(1–381) (MKP3^FL); made in house; host or cells: Escherichia coli BL21(DE3)
T5 sequence (Q16828 1-381 T87G): T1 sequence (Q16828 1-381 E81G) with G81E, T87G
Description: as §1, §2, §3

Structure (SMILES): O=C1/C(=C/c2ccccc2)C(NC2CCCCC2)c2ccccc21 (centres unmarked) [BCI, (E)-2-benzylidene-3-(cyclohexylamino)-2,3-dihydro-1H-inden-1-one]
- affinity for BCI compared with MKP3^WT [1]: significantly reduced affinity
- affinity for BCI compared with MKP3^WT [2]: significantly reduced affinity
- affinity for BCI compared with MKP3^WT [3]: affinities similar to the WT
- affinity for BCI compared with MKP3^WT [4]: significantly reduced affinity
- affinity for BCI compared with MKP3^WT [5]: affinities similar to the WT

Source: paper PMC12444472, “BCI inhibits MKP3 by targeting the kinase-binding domain and disrupting ERK2 interaction” (The Journal of Biological Chemistry, 2025)
